Five compounds from US20110237538A1, “TREATMENT OF LYSOSOMAL STORAGE DISORDERS AND OTHER PROTEOSTATIC DISEASES” (SUMMIT CORPORATION PLC, priority 2008, published 2011) can be followed below.

Assay [1] concerns alpha-galactosidase. As to the kind of experiment: enzyme enhancement assay, cell based screening for chaperones (Fabry lymphoblasts GM04391). Further details: species or system human. To be noted: Fabry patient lymphoblasts (GM04391), dosed 0.3-100 μM, 72 hr; relative to vehicle.
The subject of assay [2] is beta-glucocerebrosidase (N370S GM01873, L444P GM08752). The assay is described as follows: enzyme enhancement assay, cell based screening for chaperones (Gaucher lymphoblasts). The arrangement: species or system human. To be noted: Gaucher patient lymphoblasts, dosed 0.3-100 μM, 72 hr; relative to vehicle, normalised against total protein.
In assay [3] the target is T1, wild type (wt) beta-glucocerebrosidase (Homo sapiens, UniProt P04062).
T1 construct: The lysates were used as a source for wild type (wt) beta-glucocerebrosidase; endogenous in cells; host or cells: HL60 (ECACC No. 98070106) lysate
T1 sequence (P04062 40-536): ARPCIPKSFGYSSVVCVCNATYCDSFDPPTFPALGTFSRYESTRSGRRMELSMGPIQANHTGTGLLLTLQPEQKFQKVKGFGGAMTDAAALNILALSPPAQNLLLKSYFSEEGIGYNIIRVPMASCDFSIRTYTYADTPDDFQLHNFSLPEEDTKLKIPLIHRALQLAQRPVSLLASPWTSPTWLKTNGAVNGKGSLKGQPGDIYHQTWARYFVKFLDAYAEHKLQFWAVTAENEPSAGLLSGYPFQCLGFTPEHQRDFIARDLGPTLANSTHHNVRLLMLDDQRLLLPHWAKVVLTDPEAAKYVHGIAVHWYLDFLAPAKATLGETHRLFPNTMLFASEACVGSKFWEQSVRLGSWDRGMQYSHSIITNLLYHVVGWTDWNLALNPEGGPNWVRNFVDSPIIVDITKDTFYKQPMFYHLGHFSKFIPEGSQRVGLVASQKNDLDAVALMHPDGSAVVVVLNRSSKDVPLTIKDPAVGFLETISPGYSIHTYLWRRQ
As to the kind of experiment: beta-glucocerebrosidase activity assay in HL60 lysate (4MU-β-D-glc).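 Also: fluorometric read-out of 4MU liberated from the substrate (ex 360 nm, em 450 nm) after 37 °C incubation, reaction stopped with sodium carbonate.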 Type of assay: biochemical. To be noted: at a concentration of 100 μM, 0.5 mM 4MU-β-D-glc.

The target in assay [4] is T2, beta-glucuronidase (Homo sapiens, UniProt P08236).
T2 sequence (P08236 23-651): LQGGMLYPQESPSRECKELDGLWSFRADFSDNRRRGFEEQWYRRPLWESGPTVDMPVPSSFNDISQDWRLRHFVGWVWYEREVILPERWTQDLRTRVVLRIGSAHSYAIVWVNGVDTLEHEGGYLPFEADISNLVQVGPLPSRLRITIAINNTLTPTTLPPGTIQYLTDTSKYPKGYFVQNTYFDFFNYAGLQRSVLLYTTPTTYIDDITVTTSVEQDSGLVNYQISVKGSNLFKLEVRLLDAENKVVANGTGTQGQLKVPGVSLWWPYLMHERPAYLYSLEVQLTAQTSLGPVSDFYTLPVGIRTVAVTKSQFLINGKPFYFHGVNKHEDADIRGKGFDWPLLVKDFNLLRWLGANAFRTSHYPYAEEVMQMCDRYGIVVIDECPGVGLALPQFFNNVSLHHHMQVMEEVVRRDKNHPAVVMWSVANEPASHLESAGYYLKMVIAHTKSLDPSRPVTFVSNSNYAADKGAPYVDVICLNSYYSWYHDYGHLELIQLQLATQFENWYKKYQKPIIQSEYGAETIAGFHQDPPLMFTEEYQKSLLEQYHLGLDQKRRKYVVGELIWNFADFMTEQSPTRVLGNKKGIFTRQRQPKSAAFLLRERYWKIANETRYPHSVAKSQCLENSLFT
The assay is described as follows: inhibition of beta-glucuronidase (Example 3). Type of assay: biochemical. An excerpt:
(§1) This compound, for example, might therefore show therapeutic activity for mucopolysaccharidosis type 1.

Assay [5] concerns α-D-glucosidase (Bacillus sterothermophilus). As to the kind of experiment: glycosidase assay with p-nitrophenyl substrates (Example 2). In kind it is biochemical. To be noted: 10 μl of 5 mM iminosugar solution in 70 μl incubation mixture; 20° C. The procedure:
(§2) The assays were conducted as described by Watson et al. 1997, Phytochemistry 46: 255-259 using p-nitrophenyl-substrates. Assays were carried out in microtitre plates. Enzymes were assayed in 0.1M citric acid/0.2M di-sodium hydrogen phosphate (Mcllvaine) buffers at the optimum pH for the enzyme. All assays were carried out at 20° C. All enzymes and substrates were purchased from Sigma Aldrich Chemicals Limited. The incubation mixture consisted of 10 μl of enzyme solution, 10 μl of the iminosugars solution (made up in deionised water at 5 mM) and 50 μl of the appropriate 5 mM p-nitrophenyl substrate made up in McIlvaine buffer at the optimum pH for the enzyme. The reactions were stopped with 0.4M glycine (pH 10.4) during the exponential phase of the reaction, which was determined at the beginning of the assay using blanks with water, which were incubated for a range of time periods to measure the reaction rate using 5 mM substrate solution. Absorbances were read at 405 nm. Water was substituted for the inhibitors in the blanks.
(§3) The glycosidases used were α-D-glucosidase (yeast), α-D-glucosidase (Bacillus sterothermophilus), α-D-glucosidase (rice), amyloglucosidase (Aspergillus niger), β-D-glucosidase (almond), α-D-galactosidase (green coffee beans), β-D-galactosidase (bovine liver), α-L-fucosidase (bovine kidney), α-D-mannosidase (Jack bean), β-D-mannosidase (Cellullomonas fimi), Naringinase (Penicillium decumbens), N-acetyl-β-D-glucosaminidase (Bovine kidney), N-acetyl-β-D-glucosaminidase (Aspergillus oryzae) and N-acetyl-β-D-glucosaminidase (Jack bean)

The target in assay [6] is T3, α-L-fucosidase (bovine kidney) (Bos taurus, UniProt Q2KIM0).
T3 construct: purchased Sigma Aldrich Chemicals Limited; host or cells: bovine kidney
T3 sequence (Q2KIM0 23-468): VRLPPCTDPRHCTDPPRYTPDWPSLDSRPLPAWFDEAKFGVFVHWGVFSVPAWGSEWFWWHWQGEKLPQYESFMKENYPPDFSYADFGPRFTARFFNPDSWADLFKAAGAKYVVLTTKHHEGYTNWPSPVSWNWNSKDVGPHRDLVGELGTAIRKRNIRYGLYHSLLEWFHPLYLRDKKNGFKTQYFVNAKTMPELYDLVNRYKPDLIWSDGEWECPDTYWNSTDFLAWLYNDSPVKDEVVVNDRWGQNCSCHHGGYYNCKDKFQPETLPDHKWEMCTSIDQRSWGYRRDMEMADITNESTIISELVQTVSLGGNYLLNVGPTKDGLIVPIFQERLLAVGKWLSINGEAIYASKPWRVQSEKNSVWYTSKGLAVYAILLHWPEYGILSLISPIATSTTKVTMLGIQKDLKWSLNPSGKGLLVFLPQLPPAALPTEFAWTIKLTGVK
Described as above. In kind it is biochemical. To be noted: 10 μl of 5 mM iminosugar solution in 70 μl incubation mixture; 20° C. Here is the method:
as §2, §3

Assay [7] concerns the target T4, α-D-galactosidase (green coffee beans) (Coffea arabica, UniProt Q42656).
T4 construct: purchased Sigma Aldrich Chemicals Limited
The description is as above. In kind it is biochemical. To be noted: 10 μl of 5 mM iminosugar solution in 70 μl incubation mixture; 20° C.; read-out: Promotion of glycosidase activity: α-D-galactosidase (Green coffee bean). The procedure:
as §2, §3

For assay [8], the system named is the other 14 glycosidases described in Example 2. The assay is described as follows: glycosidase panel of Example 2 (selectivity). Type of assay: biochemical. The procedure:
as §2, with “blanks. […]” for “blanks.”

Assay [9] concerns the target T5, alpha-L-iduronidase (Homo sapiens, UniProt P35475).
T5 sequence (P35475 28-653): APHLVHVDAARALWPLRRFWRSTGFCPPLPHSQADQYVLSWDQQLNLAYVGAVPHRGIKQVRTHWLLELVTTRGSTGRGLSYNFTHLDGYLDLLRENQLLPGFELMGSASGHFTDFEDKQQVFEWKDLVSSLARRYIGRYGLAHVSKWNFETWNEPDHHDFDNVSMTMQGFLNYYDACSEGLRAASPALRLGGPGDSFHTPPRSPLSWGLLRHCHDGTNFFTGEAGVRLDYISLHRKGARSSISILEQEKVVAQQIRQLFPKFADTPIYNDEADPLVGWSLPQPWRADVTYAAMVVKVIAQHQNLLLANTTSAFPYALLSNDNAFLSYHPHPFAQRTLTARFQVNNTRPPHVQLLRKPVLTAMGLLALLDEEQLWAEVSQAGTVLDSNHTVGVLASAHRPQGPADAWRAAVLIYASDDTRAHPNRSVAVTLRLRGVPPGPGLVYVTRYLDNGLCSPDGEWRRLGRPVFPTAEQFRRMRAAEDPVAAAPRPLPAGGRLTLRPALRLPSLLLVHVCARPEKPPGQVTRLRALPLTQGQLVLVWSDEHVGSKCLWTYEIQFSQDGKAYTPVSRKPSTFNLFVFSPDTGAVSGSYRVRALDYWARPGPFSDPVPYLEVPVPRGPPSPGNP
The assay is described as follows: inhibition of alpha-L-iduronidase (Example 3). Type of assay: biochemical.
Text: as §1

Assay [10] has as its target T6, Jack bean α-D-mannosidase (Canavalia ensiformis, UniProt C0HJB3).
T6 construct: purchased Sigma M7257
T6 sequence (C0HJB3 1-981): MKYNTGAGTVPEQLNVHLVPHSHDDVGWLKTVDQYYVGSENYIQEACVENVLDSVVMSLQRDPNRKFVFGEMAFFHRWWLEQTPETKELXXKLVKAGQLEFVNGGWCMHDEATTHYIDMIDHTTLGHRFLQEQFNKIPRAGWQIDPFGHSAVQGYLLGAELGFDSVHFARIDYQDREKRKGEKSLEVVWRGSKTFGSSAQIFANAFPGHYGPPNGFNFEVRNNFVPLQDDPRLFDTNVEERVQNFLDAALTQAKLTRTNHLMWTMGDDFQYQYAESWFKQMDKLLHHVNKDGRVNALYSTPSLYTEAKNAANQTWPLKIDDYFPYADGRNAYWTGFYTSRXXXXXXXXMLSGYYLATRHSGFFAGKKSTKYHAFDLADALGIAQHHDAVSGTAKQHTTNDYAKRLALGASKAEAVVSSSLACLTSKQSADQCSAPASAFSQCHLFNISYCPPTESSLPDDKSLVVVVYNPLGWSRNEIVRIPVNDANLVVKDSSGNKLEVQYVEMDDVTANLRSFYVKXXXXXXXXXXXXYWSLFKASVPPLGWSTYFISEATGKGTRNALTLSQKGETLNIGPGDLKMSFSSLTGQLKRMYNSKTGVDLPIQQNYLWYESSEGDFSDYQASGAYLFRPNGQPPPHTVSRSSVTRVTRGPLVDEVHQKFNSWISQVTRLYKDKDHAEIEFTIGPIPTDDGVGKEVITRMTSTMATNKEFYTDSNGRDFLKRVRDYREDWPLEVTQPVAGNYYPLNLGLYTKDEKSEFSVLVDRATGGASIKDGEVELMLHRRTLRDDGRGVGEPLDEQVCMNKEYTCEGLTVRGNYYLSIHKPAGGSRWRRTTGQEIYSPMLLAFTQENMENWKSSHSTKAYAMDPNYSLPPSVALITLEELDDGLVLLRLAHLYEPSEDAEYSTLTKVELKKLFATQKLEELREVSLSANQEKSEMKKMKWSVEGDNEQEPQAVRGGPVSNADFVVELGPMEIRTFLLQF
The assay is described as follows: α-mannosidase activity assay with p-nitrophenyl-α-D-mannopyranoside (Example 1). Particulars: Jack Bean α-mannosidase, p-nitrophenyl-α-D-mannopyranoside as the substrate. Type of assay: biochemical. The procedure:
Solutions of 0.2M Mcllvane buffer at pH 4.5 and 5 mM p-nitrophenyl-α-D-mannopyranoside (Sigma, N2127), dissolved in the buffer, were prepared. A solution of Jack bean α-D-mannosidase enzyme (Sigma, M7257, 22 Units/mg, 6.2 mg/ml.) was also prepared at 0.6 Units/ml in the buffer.
The incubation mixture consisted of 10 μl enzyme solution, 10 μl of 1 mg/ml aqueous iminosugar solution and 50 μl of 5 mM substrate made up in buffer at the optimum pH for the enzyme. The reactions were stopped by addition of 70 μl 0.4M glycine (pH 10.4) during the exponential phase of the reaction, which had been determined at the beginning using uninhibited assays in which water replaced inhibitor. Final absorbances were read at 405 nm using a Versamax microplate reader (Molecular Devices). Assays were carried out in triplicate, and the values given are means of the three replicates. Results were expressed as a percentage of uninhibited assays in which water replaced inhibitor.

SMILES strings stand for the structures.

T4 sequence (Q42656 16-378): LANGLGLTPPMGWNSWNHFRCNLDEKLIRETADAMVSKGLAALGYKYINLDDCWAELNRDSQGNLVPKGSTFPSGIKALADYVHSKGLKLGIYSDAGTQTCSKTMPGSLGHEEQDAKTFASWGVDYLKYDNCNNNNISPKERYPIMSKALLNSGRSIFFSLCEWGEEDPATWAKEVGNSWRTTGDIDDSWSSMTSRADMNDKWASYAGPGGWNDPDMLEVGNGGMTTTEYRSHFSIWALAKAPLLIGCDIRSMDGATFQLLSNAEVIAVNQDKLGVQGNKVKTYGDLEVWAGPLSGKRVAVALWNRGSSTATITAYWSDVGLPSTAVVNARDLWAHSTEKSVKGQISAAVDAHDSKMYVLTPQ

One may read the inhibition as the change of the read-out against control, counted positive when it falls. Low values mean a response near the control, high ones a response far below the control. Regarding `O[C@@H]1C[C@H]2CC[C@](O)(N2)[C@H]1O` [Compound 20, (1R,2S,3R,5R)-8-azabicyclo[3.2.1]octane-1,2,3-triol], in assay [1], the “increased enzyme activity (alpha-galactosidase)” value is recorded as over 20%. Further, the “increased enzyme activity (beta-glucocerebrosidase)” value in assay [2] is over 20%. In assay [3], this compound returned an inhibition at 100 µM of over 50%.
On to `O=C(O)[C@H]1NC[C@H](O)[C@@H](O)[C@@H]1O` [Compound 7, (2S,3R,4R,5S)-3,4,5-trihydroxypiperidine-2-carboxylic acid], for which the “inhibition of beta-glucuronidase (in words)” value in [4] was “specific inhibitor”.
Regarding `CCCCCCCCCN1C[C@H](O)[C@H](O)[C@@H]1[C@H](O)[C@H](O)CO` [Compound 324, (1S,2R)-1-((2R,3R,4S)-3,4-dihydroxy-1-nonylpyrrolidin-2-yl)propane-1,2,3-triol], the “Promotion of glycosidase activity: α-D-glucosidase (Bacillus sterothermophilus)” value in [5] is on record as 150 % increase in absorbance compared to the water controls. For the same compound, the “Promotion of glycosidase activity: α-L-fucosidase (Bovine kidney)” value in assay [6] is on record as 42 % increase in absorbance compared to the water controls. Besides, in [7], the activation at 714 µM is 42%.
As for `O=C(O)[C@@H]1[C@@H](O)[C@H](O)[C@H]2[C@@H](O)CCN21` [Compound 56, (1R,2R,3S,7S,7aR)-1,2,7-trihydroxyhexahydro-1H-pyrrolizine-3-carboxylic acid], the “inhibition of the other 14 glycosidases described in Example 2 (in words)” value in assay [8] is reported as “none”. Besides, the “inhibition of alpha-L-iduronidase (in words)” value in assay [9] is listed as “potently inhibited”.
In the case of `C[C@@]1(O)CN[C@H](CO)[C@@H](O)[C@@H]1O` [Compound 201, (2R,3R,4S,5R)-2-(hydroxymethyl)-5-methylpiperidine-3,4,5-triol], the “increased enzyme activity (alpha-galactosidase)” value in assay [1] is over 201%. Besides, in assay [2], the “increased enzyme activity (beta-glucocerebrosidase)” value is recorded as over 201%. Moreover, in [10], the “promotion of the mannosidase activity (in words)” value is reported as “promotion of the mannosidase activity”.
